{"source": "PubChem BioAssay (NCI)", "assay_in_all_cases": "NCI tumour cell line growth inhibition, 48 h", "key": {"[1]": {"tested_on": "NCI-H23 lung"}, "[2]": {"tested_on": "OVCAR-3 ovarian"}, "[3]": {"tested_on": "RXF-631 renal"}, "[4]": {"tested_on": "OVCAR-4 ovarian"}, "[5]": {"tested_on": "HOP-62 NSCLC"}, "[6]": {"tested_on": "CAKI-1 renal"}, "[7]": {"tested_on": "RPMI-8226 leukemia"}, "[8]": {"tested_on": "SK-MEL-5 melanoma"}, "[9]": {"tested_on": "XF 498 CNS"}, "[10]": {"tested_on": "RXF 393 renal"}, "[11]": {"tested_on": "CCRF-CEM leukemia"}, "[12]": {"tested_on": "U251 CNS"}, "[13]": {"tested_on": "HCT-15 colon"}, "[14]": {"tested_on": "LXFL 529 NSCLC"}, "[15]": {"tested_on": "SF-539 CNS"}, "[16]": {"tested_on": "SK-MEL-2 melanoma"}, "[17]": {"tested_on": "UACC-257 melanoma"}, "[18]": {"tested_on": "IGROV1 ovarian"}, "[19]": {"tested_on": "MALME-3M melanoma"}, "[20]": {"tested_on": "HCC-2998 colon"}, "[21]": {"tested_on": "DLD-1 colon"}, "[22]": {"tested_on": "KM20L2 colon"}, "[23]": {"tested_on": "NCI-H226 lung"}, "[24]": {"tested_on": "SR leukemia"}, "[25]": {"tested_on": "SK-OV-3 ovarian"}, "[26]": {"tested_on": "SK-MEL-28 melanoma"}, "[27]": {"tested_on": "A498 renal"}, "[28]": {"tested_on": "SF-268 CNS"}, "[29]": {"tested_on": "M19-MEL melanoma"}, "[30]": {"tested_on": "SNB-75 CNS"}, "[31]": {"tested_on": "OVCAR-5 ovarian"}, "[32]": {"tested_on": "NCI-H522 lung"}, "[33]": {"tested_on": "HCT-116 colon"}, "[34]": {"tested_on": "DMS 114 small cell lung"}, "[35]": {"tested_on": "UACC-62 melanoma"}, "[36]": {"tested_on": "HOP-18 NSCLC"}, "[37]": {"tested_on": "SF-295 CNS"}, "[38]": {"tested_on": "HT29 colon"}, "[39]": {"tested_on": "SNB-78 CNS"}, "[40]": {"tested_on": "EKVX NSCLC"}, "[41]": {"tested_on": "786-0 renal"}, "[42]": {"tested_on": "SNB-19 CNS"}, "[43]": {"tested_on": "SN12C renal"}, "[44]": {"tested_on": "SW-620 colon"}, "[45]": {"tested_on": "UO-31 renal"}, "[46]": {"tested_on": "NCI-H460 lung"}, "[47]": {"tested_on": "OVCAR-8 ovarian"}, "[48]": {"tested_on": "A549 NSCLC"}, "[49]": {"tested_on": "KM12 colon"}, "[50]": {"tested_on": "K-562 leukemia"}, "[51]": {"tested_on": "HOP-92 NSCLC"}, "[52]": {"tested_on": "MOLT-4 leukemia"}, "[53]": {"tested_on": "TK-10 renal"}, "[54]": {"tested_on": "DMS 273 small cell lung"}, "[55]": {"tested_on": "M14 melanoma"}, "[56]": {"tested_on": "HL-60(TB) leukemia"}, "[57]": {"tested_on": "ACHN renal"}, "[58]": {"tested_on": "COLO 205 colon"}}, "note": "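Five concentrations, 48 hours, 96-well plates. At the TGI there is no net growth.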", "data": [{"molecule": "Cc1nc(N)nc(CCC(=O)Nc2cccc(C(F)(F)F)c2)c1-c1ccc(Cl)cc1", "values": [{"measurement": "TGI", "setting": "[1]", "value": "> 100", "unit": "µM"}, {"measurement": "TGI", "setting": "[2]", "value": "> 100", "unit": "µM"}, {"measurement": "TGI", "setting": "[3]", "value": "> 100", "unit": "µM"}, {"measurement": "TGI", "setting": "[4]", "value": "> 100", "unit": "µM"}, {"measurement": "TGI", "setting": "[5]", "value": "> 100", "unit": "µM"}, {"measurement": "TGI", "setting": "[6]", "value": "> 100", "unit": "µM"}, {"measurement": "TGI", "setting": "[7]", "value": "> 100", "unit": "µM"}, {"measurement": "TGI", "setting": "[8]", "value": "> 100", "unit": "µM"}, {"measurement": "TGI", "setting": "[9]", "value": "> 100", "unit": "µM"}, {"measurement": "TGI", "setting": "[10]", "value": "> 100", "unit": "µM"}, {"measurement": "TGI", "setting": "[11]", "value": "> 100", "unit": "µM"}, {"measurement": "TGI", "setting": "[12]", "value": "> 100", "unit": "µM"}, {"measurement": "TGI", "setting": "[13]", "value": "> 100", "unit": "µM"}, {"measurement": "TGI", "setting": "[14]", "value": "> 100", "unit": "µM"}, {"measurement": "TGI", "setting": "[15]", "value": "> 100", "unit": "µM"}, {"measurement": "TGI", "setting": "[16]", "value": "> 100", "unit": "µM"}, {"measurement": "TGI", "setting": "[17]", "value": "> 100", "unit": "µM"}, {"measurement": "TGI", "setting": "[18]", "value": "> 100", "unit": "µM"}, {"measurement": "TGI", "setting": "[19]", "value": "> 100", "unit": "µM"}, {"measurement": "TGI", "setting": "[20]", "value": "> 100", "unit": "µM"}, {"measurement": "TGI", "setting": "[21]", "value": "> 100", "unit": "µM"}, {"measurement": "TGI", "setting": "[22]", "value": "> 100", "unit": "µM"}, {"measurement": "TGI", "setting": "[23]", "value": "> 100", "unit": "µM"}, {"measurement": "TGI", "setting": "[24]", "value": 56.8, "unit": "µM"}, {"measurement": "TGI", "setting": "[25]", "value": "> 100", "unit": "µM"}, {"measurement": "TGI", "setting": "[26]", "value": "> 100", "unit": "µM"}, {"measurement": "TGI", "setting": "[27]", "value": "> 100", "unit": "µM"}, {"measurement": "TGI", "setting": "[28]", "value": "> 100", "unit": "µM"}, {"measurement": "TGI", "setting": "[29]", "value": "> 100", "unit": "µM"}, {"measurement": "TGI", "setting": "[30]", "value": "> 100", "unit": "µM"}, {"measurement": "TGI", "setting": "[31]", "value": "> 100", "unit": "µM"}, {"measurement": "TGI", "setting": "[32]", "value": "> 100", "unit": "µM"}, {"measurement": "TGI", "setting": "[33]", "value": "> 100", "unit": "µM"}, {"measurement": "TGI", "setting": "[34]", "value": "> 100", "unit": "µM"}, {"measurement": "TGI", "setting": "[35]", "value": "> 100", "unit": "µM"}, {"measurement": "TGI", "setting": "[36]", "value": "> 100", "unit": "µM"}, {"measurement": "TGI", "setting": "[37]", "value": "> 100", "unit": "µM"}, {"measurement": "TGI", "setting": "[38]", "value": "> 100", "unit": "µM"}, {"measurement": "TGI", "setting": "[39]", "value": "> 100", "unit": "µM"}, {"measurement": "TGI", "setting": "[40]", "value": "> 100", "unit": "µM"}, {"measurement": "TGI", "setting": "[41]", "value": "> 100", "unit": "µM"}, {"measurement": "TGI", "setting": "[42]", "value": "> 100", "unit": "µM"}, {"measurement": "TGI", "setting": "[43]", "value": "> 100", "unit": "µM"}, {"measurement": "TGI", "setting": "[44]", "value": "> 100", "unit": "µM"}, {"measurement": "TGI", "setting": "[45]", "value": "> 100", "unit": "µM"}, {"measurement": "TGI", "setting": "[46]", "value": "> 100", "unit": "µM"}, {"measurement": "TGI", "setting": "[47]", "value": "> 100", "unit": "µM"}, {"measurement": "TGI", "setting": "[48]", "value": "> 100", "unit": "µM"}, {"measurement": "TGI", "setting": "[49]", "value": "> 100", "unit": "µM"}, {"measurement": "TGI", "setting": "[50]", "value": "> 100", "unit": "µM"}, {"measurement": "TGI", "setting": "[51]", "value": "> 100", "unit": "µM"}, {"measurement": "TGI", "setting": "[52]", "value": "> 100", "unit": "µM"}, {"measurement": "TGI", "setting": "[53]", "value": "> 100", "unit": "µM"}, {"measurement": "TGI", "setting": "[54]", "value": "> 100", "unit": "µM"}, {"measurement": "TGI", "setting": "[55]", "value": "> 100", "unit": "µM"}, {"measurement": "TGI", "setting": "[56]", "value": "> 100", "unit": "µM"}, {"measurement": "TGI", "setting": "[57]", "value": "> 100", "unit": "µM"}, {"measurement": "TGI", "setting": "[58]", "value": "> 100", "unit": "µM"}]}]}
